Literature values as cited in patent US20260335319A1, “INJECTABLE COMPOSITIONS OF METOLAZONE” (CIPLA LIMITED, priority 2023, published 2026).
Like-named read-outs stand apart in the source and are kept apart here.

Assays:
[1] = relative to water

absorption (metolazone, general): variable absorption
bioavailability (metolazone, general): poor bioavailability
absorption (oral immediate release tablet): erratic absorption
bioavailability (oral immediate release tablet): variable bioavailability
SMILES: Cc1ccccc1N1C(=O)c2cc(S(N)(=O)=O)c(Cl)cc2NC1C (centres unmarked) [Metolazone, 7-chloro-1,2,3,4-tetrahydro-2-methyl-3-(2-methylphenyl)-4-oxo-6-quinazolinesulfonamide]
solubility in alkali and organic solvents [1]: more soluble in alkali, and organic solvents
